Earlier results, collected in paper PMC4854401, “Biochemical Mechanisms for Geographical Adaptations to Novel Toxin Exposures in Butterflyfish” (PLoS ONE, 2016).

Test system: CYP activity
Design: method as in PMID 24272422
Conditions: black swallowtails (Papilio polyxenes), dose-dependent; cited from earlier work

**Q.** Which “induced CYP activity, increase” value does the source give for `COc1c2occc2cc2ccc(=O)oc12` [xanthotoxin] here?
**A.** seven fold
